Data taken from paper PMC9250534, “Synthesis and direct assay of large macrocycle diversities by combinatorial late-stage modification at picomole scale” (Nature Communications, 2022).
Several values for one entry are separate records, joined by “and”; a condition that tells them apart may be missing. Equal values may be shown once. Read-outs that look alike come from different tables or passages of the source. Each block holds one molecule with its values, some of them ahead of it.

Tests used:
MDM2 [1] = target: T1, MDM2 (Homo sapiens, UniProt Q00987); experiment: IC50 of purified MDM2-binding macrocycles, fluorescence polarization competition with FP53; conditions: for IC50: HPLC-purified macrocycle, FP displacement of fluorescent reporter peptide; for displacement of fluorescent peptide probe from MDM2: HPLC-purified macrocycles, FP competition; for anisotropy: replicates 1-3
T1 sequence (Q00987 whole entry): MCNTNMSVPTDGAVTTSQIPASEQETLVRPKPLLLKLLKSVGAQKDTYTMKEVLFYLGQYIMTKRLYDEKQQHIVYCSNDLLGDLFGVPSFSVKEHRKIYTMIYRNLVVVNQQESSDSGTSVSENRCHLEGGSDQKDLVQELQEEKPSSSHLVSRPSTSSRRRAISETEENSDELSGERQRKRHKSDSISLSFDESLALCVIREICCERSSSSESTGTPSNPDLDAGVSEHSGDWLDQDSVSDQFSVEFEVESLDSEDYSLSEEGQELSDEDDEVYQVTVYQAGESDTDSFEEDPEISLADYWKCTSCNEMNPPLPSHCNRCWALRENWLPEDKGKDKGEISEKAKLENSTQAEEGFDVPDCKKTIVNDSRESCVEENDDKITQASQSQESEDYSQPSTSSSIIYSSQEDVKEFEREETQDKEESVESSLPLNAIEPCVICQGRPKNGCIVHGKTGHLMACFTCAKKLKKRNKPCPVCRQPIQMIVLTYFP
Description: Volumes of 5 μL of purified macrocycles (20 mM in DMSO) were serial diluted two-fold in 100% DMSO in a low dead-volume ECHO source plate. Using acoustic droplet transfer, 150 nL of each dilution was transferred to a 384 well low volume polystyrene plate (Nunc, 264705). […] Fluorescence anisotropy was measured as described above. The percentage of bound inhibitor was calculated using the following equation4 %boundinhibitor=N−X/N−P×100 where N is the average anisotropy of the DMSO controls, X is the anisotropy value obtained for each well, and P is the average anisotropy of the unbound probe. The IC50s were determined by plotting the percent of bound inhibitor against the logarithm of the corresponding macrocycle concentration, and the curves were fitted in GraphPad Prism 6 as described above.

MDM2 [2] = target: T1, MDM2; experiment: Kd of MDM2 binders by surface plasmon resonance (SPR); format: binding; conditions: unlabeled macrocycles; triplicate
Description: Experiments were performed using a GE Healthcare Biacore 8 K instrument. MDM2 (10 μg/mL) was dissolved in 10 mM MES buffer (pH 6.0) and immobilized on three channels of a CM5 series S chip (Cytiva, 29104988) using EDC/NHS amine coupling conditions in running buffer (10 mM PBS pH 7.4, 150 mM NaCl, 3 mM KCl, and 0.005% v/v Tween 20). Typical immobilization level was 6000 to 7000 resonance units (RUs). The reference cell was treated the same way without MDM2. For the measurement of binding kinetics and dissociation constants, five serial dilutions (3-fold) of macrocycles plus a DMSO blank were prepared in running buffer (10 mM PBS pH 7.4, 150 mM NaCl, 3 mM KCl, and 0.005% v/v Tween 20, and 0.5% v/v DMSO) and analyzed in single cycle kinetics mode with contact and dissociation times of 120 s and 60 s, respectively. The data was collected and analyzed using the Biacore 8 K Control Software.
Supplementary Figure 14. Binding of macrocycles to MDM2 measured by SPR. a, Single-cycle SPR sensorgrams for fluorescein-labeled macrocycles, positive control nutlin-3a (not fluorescein labeled), and negative controls (thrombin inhibitors; not fluorescein labeled). RU, response unit. b, Single-cycle SPR sensorgrams for macrocycles M6, M7, M8 and M10 (not fluorescein-labeled), performed in triplicate.
(1 picture or pasted object on this page, not shown here)

MDM2 [3] = target: T1, MDM2; experiment: MDM2 binding (FP53 displacement) by HPLC fractions of resynthesized hit reactions
Description: For hits from the MDM2 screen, reactions were performed in the same way but at a 50 nmol scale, and purified with the same method but a 10–80% gradient of solvent B and over 22 min. Fractions were lyophilized and dissolved in 40 μL of DMSO, 160 μL of water was added, and 5 μL of each fraction was transferred to a 384-well plate (Nunc, 264705), and 15 μL of premixed MDM2/FP53 peptide were added (final concentrations: 1.2 μM MDM2, 50 nM FP53, 5% DMSO).

MDM2 [4] = target: T1, MDM2; experiment: MDM2 binding screen of Libraries 3 and 4: displacement of fluorescent probe F-M8 at 750 nM macrocycle; conditions: 750 nM macrocycle; crude reaction; probe F-M8
How it was run: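 Competition with nutlin-3a was run using the fluorescein conjugate. Library members came from scaffolds reacted 6 h at room temperature with carboxylic acids (20 equiv.), HBTU and DABCO in DMSO. Quenching was overnight in Tris-Cl pH 7.4 buffer with 0.01% Tween20.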

[5] = prodrug; cited from earlier work
MDM2 [6] = conditions: MDM2 inhibitor in clinical studies; literature value, no reference given; read-out: HTRF IC50; cited from earlier work
[7] = average of 3 replicates, read-out: IC50 Average
[8] = replicate 1, read-out: IC50 Replicate 1
[9] = replicate 2, read-out: IC50 Replicate 2
[10] = replicate 3, read-out: IC50 Replicate 3
[11] = HPLC Fraction 1 of acylation reaction
[12] = HPLC Fraction 2 of acylation reaction
[13] = HPLC Fraction 3 of acylation reaction
[14] = HPLC Fraction 4 of acylation reaction
[15] = HPLC Fraction 5 of acylation reaction
[16] = HPLC Fraction 6 of acylation reaction
[17] = HPLC Fraction 7 of acylation reaction
[18] = HPLC Fraction 8 of acylation reaction
[19] = HPLC Fraction 9 of acylation reaction
[20] = HPLC Fraction 10 of acylation reaction
[21] = HPLC Fraction 11 of acylation reaction
[22] = HPLC Fraction 12 of acylation reaction
[23] = HPLC Fraction 13 of acylation reaction
[24] = HPLC Fraction 14 of acylation reaction
[25] = HPLC Fraction 15 of acylation reaction
[26] = HPLC Fraction 16 of acylation reaction
[27] = HPLC Fraction 17 of acylation reaction
[28] = HPLC Fraction 18 of acylation reaction
[29] = HPLC Fraction 19 of acylation reaction
[30] = HPLC Fraction 20 of acylation reaction

IC50 (MDM2 [1]; [7]): 2.4 µM | IC50 (MDM2 [1]; [8]): 2.6 µM | IC50 (MDM2 [1]; [9]): 1.9 µM | IC50 (MDM2 [1]; [10]): 2.6 µM | displacement of fluorescent peptide probe from MDM2 (MDM2 [1]): efficiently displaced | anisotropy (MDM2 [1]; Log[Macrocycle] M -4.0): 25 and 23 and 22 | anisotropy (MDM2 [1]; Log[Macrocycle] M -4.3): 31 and 28 and 30 | anisotropy (MDM2 [1]; Log[Macrocycle] M -4.6): 33 (2×) and 32 | anisotropy (MDM2 [1]; Log[Macrocycle] M -4.9): 38 and 32 and 40 | anisotropy (MDM2 [1]; Log[Macrocycle] M -5.2): 47 and 39 and 44 | anisotropy (MDM2 [1]; Log[Macrocycle] M -5.5): 51 and 45 and 47 | anisotropy (MDM2 [1]; Log[Macrocycle] M -5.8): 62 and 52 and 55 | anisotropy (MDM2 [1]; Log[Macrocycle] M -6.1): 69 and 59 and 62 | anisotropy (MDM2 [1]; Log[Macrocycle] M -6.4): 80 and 67 and 64 | anisotropy (MDM2 [1]; Log[Macrocycle] M -6.7): 83 and 68 and 74 | anisotropy (MDM2 [1]; Log[Macrocycle] M -7.0): 78 and 72 and 75 | anisotropy (MDM2 [1]; Log[Macrocycle] M -7.3): 86 and 75 and 80 | anisotropy (MDM2 [1]; Log[Macrocycle] M -7.6): 89 and 77 and 85 | anisotropy (MDM2 [1]; Log[Macrocycle] M -7.9): 88 and 77 and 82 | anisotropy (MDM2 [1]; Log[Macrocycle] M -8.2): 89 and 77 and 85 | anisotropy (MDM2 [1]; Log[Macrocycle] M -8.5): 91 and 80 and 78 | Kd (MDM2 [2]): 0.6 ± 0.3 µM | Fraction bound (fraction fluorescent probe displaced) (MDM2 [3]; [11]): -0.09 | Fraction bound (fraction fluorescent probe displaced) (MDM2 [3]; [12]): 0.04 | Fraction bound (fraction fluorescent probe displaced) (MDM2 [3]; [13]): 0.0145 | Fraction bound (fraction fluorescent probe displaced) (MDM2 [3]; [14]): 0.04 | Fraction bound (fraction fluorescent probe displaced) (MDM2 [3]; [15]): -0.0633 | Fraction bound (fraction fluorescent probe displaced) (MDM2 [3]; [16]): -0.0373 | Fraction bound (fraction fluorescent probe displaced) (MDM2 [3]; [17]): -0.0114 | Fraction bound (fraction fluorescent probe displaced) (MDM2 [3]; [18]): -0.0114 | Fraction bound (fraction fluorescent probe displaced) (MDM2 [3]; [19]): 0.0664 | Fraction bound (fraction fluorescent probe displaced) (MDM2 [3]; [20]): -0.0373 | Fraction bound (fraction fluorescent probe displaced) (MDM2 [3]; [21]): -0.09 | Fraction bound (fraction fluorescent probe displaced) (MDM2 [3]; [22]): -0.0633 | Fraction bound (fraction fluorescent probe displaced) (MDM2 [3]; [23]): -0.0373 | Fraction bound (fraction fluorescent probe displaced) (MDM2 [3]; [24]): 0.27 | Fraction bound (fraction fluorescent probe displaced) (MDM2 [3]; [25]): -0.22 | Fraction bound (fraction fluorescent probe displaced) (MDM2 [3]; [26]): -0.0114 | Fraction bound (fraction fluorescent probe displaced) (MDM2 [3]; [27]): 0.04 | Fraction bound (fraction fluorescent probe displaced) (MDM2 [3]; [28]): -0.0373 | Fraction bound (fraction fluorescent probe displaced) (MDM2 [3]; [29]): -0.24 | Fraction bound (fraction fluorescent probe displaced) (MDM2 [3]; [30]): -0.0633
Compound: O=C(NC[C@@H]1NC(=O)[C@H]2CCCN(C2)C(=O)CCSSCCNC(=O)[C@H](Cc2c[nH]c3ccccc23)NC1=O)c1ccc(Cl)s1 [M6]

IC50 (MDM2 [1]; [7]): 0.9 µM | IC50 (MDM2 [1]; [8]): 1 µM | IC50 (MDM2 [1]; [9]): 0.84 µM | IC50 (MDM2 [1]; [10]): 0.86 µM | displacement of fluorescent peptide probe from MDM2 (MDM2 [1]): efficiently displaced | anisotropy (MDM2 [1]; Log[Macrocycle] M -4.0): 50 and 44 and 45 | anisotropy (MDM2 [1]; Log[Macrocycle] M -4.3): 50 and 43 and 47 | anisotropy (MDM2 [1]; Log[Macrocycle] M -4.6): 52 and 45 and 51 | anisotropy (MDM2 [1]; Log[Macrocycle] M -4.9): 53 and 50 and 49 | anisotropy (MDM2 [1]; Log[Macrocycle] M -5.2): 59 and 42 and 53 | anisotropy (MDM2 [1]; Log[Macrocycle] M -5.5): 61 and 53 and 54 | anisotropy (MDM2 [1]; Log[Macrocycle] M -5.8): 67 and 55 and 59 | anisotropy (MDM2 [1]; Log[Macrocycle] M -6.1): 73 and 65 and 68 | anisotropy (MDM2 [1]; Log[Macrocycle] M -6.4): 80 and 68 and 73 | anisotropy (MDM2 [1]; Log[Macrocycle] M -6.7): 85 and 73 and 80 | anisotropy (MDM2 [1]; Log[Macrocycle] M -7.0): 87 (2×) and 82 | anisotropy (MDM2 [1]; Log[Macrocycle] M -7.3): 92 and 79 and 84 | anisotropy (MDM2 [1]; Log[Macrocycle] M -7.6): 94 and 80 and 85 | anisotropy (MDM2 [1]; Log[Macrocycle] M -7.9): 90 and 80 and 83 | anisotropy (MDM2 [1]; Log[Macrocycle] M -8.2): 94 and 77 and 85 | anisotropy (MDM2 [1]; Log[Macrocycle] M -8.5): 93 and 83 (2×) | Fraction bound (fraction fluorescent probe displaced) (MDM2 [3]; [11]): 0.08 | Fraction bound (fraction fluorescent probe displaced) (MDM2 [3]; [12]): 0.25 | Fraction bound (fraction fluorescent probe displaced) (MDM2 [3]; [13]): 0.02 | Fraction bound (fraction fluorescent probe displaced) (MDM2 [3]; [14]): -0.000869 | Fraction bound (fraction fluorescent probe displaced) (MDM2 [3]; [15]): -0.0422 | Fraction bound (fraction fluorescent probe displaced) (MDM2 [3]; [16]): -0.000869 | Fraction bound (fraction fluorescent probe displaced) (MDM2 [3]; [17]): 0.02 | Fraction bound (fraction fluorescent probe displaced) (MDM2 [3]; [18]): 0.02 | Fraction bound (fraction fluorescent probe displaced) (MDM2 [3]; [19]): 0.04 | Fraction bound (fraction fluorescent probe displaced) (MDM2 [3]; [20]): -0.0422 | Fraction bound (fraction fluorescent probe displaced) (MDM2 [3]; [21]): -0.0422 | Fraction bound (fraction fluorescent probe displaced) (MDM2 [3]; [22]): -0.0216 | Fraction bound (fraction fluorescent probe displaced) (MDM2 [3]; [23]): 0.37 | Fraction bound (fraction fluorescent probe displaced) (MDM2 [3]; [24]): 0.04 | Fraction bound (fraction fluorescent probe displaced) (MDM2 [3]; [25]): -0.13 | Fraction bound (fraction fluorescent probe displaced) (MDM2 [3]; [26]): -0.0216 | Fraction bound (fraction fluorescent probe displaced) (MDM2 [3]; [27]): -0.0216 | Fraction bound (fraction fluorescent probe displaced) (MDM2 [3]; [28]): -0.21 | Fraction bound (fraction fluorescent probe displaced) (MDM2 [3]; [29]): -0.17 | Fraction bound (fraction fluorescent probe displaced) (MDM2 [3]; [30]): -0.23 | displacement of fluorescent probe from MDM2 (MDM2 [4]): 21%
Compound: O=C(/C=C/c1ccccc1)NC[C@@H]1NC(=O)[C@H]2CCCN(C2)C(=O)CCSSCCNC(=O)[C@H](Cc2c[nH]c3ccccc23)NC1=O [M8]

Compound: CCCCCCOC(=O)NC(=N)c1ccc(NCc2nc3cc(C(=O)N(CCC(=O)OCC)c4ccccn4)ccc3n2C)cc1 [dabigatran etexilate]
oral availability [5]: < 6.5%
